Columns and labels:
Format in all cases: cell-based
MDA-MB-231 cells = assay: Inhibition of proliferation of MDA-MB-231 cells by the cytotoxic agents (14C-thymidine incorporation); conditions: Homo sapiens, 3 days culture, 14C-thymidine incorporation at 96 hours
Description: (§1) Evaluation of the inhibition of proliferation of MDA-MB-231, MDA-A1 and HCT116 cell lines by the cytotoxic agents, study performed on the compounds of formula (II) of the type SZa with Za═SMe or of the type —C(═O)—ZbRb with ZbRb=OMe or OCH2—CH═CH2 The MDA-MB-231, MDA-A1 or HCT116 cells in their exponential growth phase are trypsinized and resuspended in their respective culture medium (DMEM/F12 Gibco #21331, 10% FCS Gibco #10500-056, […] Gibco #25030 for the MDA cells; DMEM Gibco #11960, 10% FCS Gibco #10500-056, 2 mM glutamine Gibco #25030 for the HCT116 cells). The cell suspension is seeded in Cytostar 96-well culture plates (GE Healthcare Europe, #RPNQ0163) in the whole culture medium containing serum at a density of 5000 cells/well (MDA-MB-231, MDA-A1, HCT116). After incubation for 4 hours, successive dilutions of the cryptophycin derivatives are added to the wells at concentrations decreasing from 10^−7 to 10^−12 M (in triplicate for each concentration). The cells are cultured for 3 days at 37° C. under an atmosphere containing 5% CO2 in the presence of the cytotoxic agents. On the 4th day, 10 μl of a ^14C-thymidine solution (0.1 μCi/well, Perkin Elmer #NEC56825000) are added to each well. The incorporation of ^14C-thymidine is measured 96 hours after the start of the experiment using a microbeta radioactivity counter (Perkin Elmer). The data are expressed in the form of a percentage of survival by determining the ratio between the reduced count obtained with the cells treated with cytotoxic agent and the count obtained with the cells of the control wells (treated with the culture medium alone).

HCT116 cells = assay: Inhibition of proliferation of HCT116 cells by the cytotoxic agents (14C-thymidine incorporation); conditions: Homo sapiens, HCT-116, 3 days culture, 14C-thymidine incorporation at 96 hours
Description: as §1

MDA-A1 cells = assay: Inhibition of proliferation of MDA-A1 cells by the cytotoxic agents (14C-thymidine incorporation); conditions: 3 days culture, 14C-thymidine incorporation at 96 hours
Description: as §1

Row | SMILES | IC50 (MDA-MB-231 cells) [nM] | IC50 (HCT116 cells) [nM] | IC50 (MDA-A1 cells) [nM]
1 | COc1ccc(C[C@H]2NC(=O)/C=C/C[C@@H]([C@H](C)[C@H]3O[C@@H]3c3ccc(CO)cc3)OC(=O)[C@H](CC(C)C)OC(=O)C(C)(C)CNC2=O)cc1Cl [Compound 1, reference compound] | 0.041 | 0.032 | 1.07
2 | COc1ccc(C[C@H]2NC(=O)/C=C/C[C@@H]([C@H](C)[C@H]3O[C@@H]3c3ccc(CN4CCN(C(=O)CCC(C)(C)SSC)CC4)cc3)OC(=O)[C@H](CC(C)C)OC(=O)C(C)(C)CNC2=O)cc1Cl [Compound 7, (E)-(3S,10R,16S)-10-(3-Chloro-4-methoxybenzyl)-3-isobutyl-6,6-dimethyl-16-[(S)-1-((2R,3R)-3-{4-[4-(4-methyl-4-methyldisulfanylpentanoyl)piperazin-1-ylmethyl]phenyl}oxiranyl)-ethyl]-1,4-dioxa-8,11-diazacyclohexadec-13-ene-2,5,9,12-tetraone] | 0.303 | 0.315 | 7.95
3 | COc1ccc(C[C@H]2NC(=O)/C=C/C[C@@H]([C@H](C)[C@H]3O[C@@H]3c3ccc(CO)cc3)OC(=O)[C@H](CC(C)C)OC(=O)[C@H](C)CNC2=O)cc1Cl [Compound 8, reference compound] | 0.104 | 0.052 | 0.828
4 | COc1ccc(C[C@H]2NC(=O)/C=C/C[C@@H]([C@H](C)[C@H]3O[C@@H]3c3ccc(CNCC(C)(C)SSC)cc3)OC(=O)[C@H](CC(C)C)OC(=O)C(C)(C)CNC2=O)cc1Cl [Compound 13, (E)-(3S,10R,16S)-10-(3-Chloro-4-methoxybenzyl)-3-isobutyl-16-[(S)-1-((2R,3R)-3-{4-[(2-methyl-2-methyldisulfanylpropylamino)methyl]phenyl}oxiranyl)ethyl]-6,6-dimethyl-1,4-dioxa-8,11-diazacyclohexadec-13-ene-2,5,9,12-tetraone] | 0.529 | 0.336 | 9.76
5 | COc1ccc(C[C@H]2NC(=O)/C=C/C[C@@H]([C@H](C)[C@H]3O[C@@H]3c3ccc(CN4CCN(CC(C)(C)SSC)CC4)cc3)OC(=O)[C@H](CC(C)C)OC(=O)C(C)(C)CNC2=O)cc1Cl [Compound 19, (E)-(3S,10R,16S)-10-(3-Chloro-4-methoxybenzyl)-3-isobutyl-6,6-dimethyl-16-[(S)-1-((2R,3R)-3-{4-[4-(2-methyl-2-methyldisulfanylpropyl)piperazin-1-ylmethyl]phenyl}oxiranyl)ethyl]-1,4-dioxa-8,11-diazacyclohexadec-13-ene-2,5,9,12-tetraone] | 0.149 | 0.152 | 2.71
6 | COc1ccc(C[C@H]2NC(=O)/C=C/C[C@@H]([C@H](C)[C@H]3O[C@@H]3c3ccc(CN(C)CCOCCOCCOCCN(C)CC(C)(C)SSC)cc3)OC(=O)[C@H](CC(C)C)OC(=O)C(C)(C)CNC2=O)cc1Cl [Compound 30] | 0.03 | 0.031 | 11.9
7 | C=CCOC(=O)CN1CCN(Cc2ccc([C@H]3O[C@@H]3[C@@H](C)[C@@H]3C/C=C/C(=O)N[C@H](Cc4ccc(OC)c(Cl)c4)C(=O)NCC(C)(C)C(=O)O[C@@H](CC(C)C)C(=O)O3)cc2)CC1 [Compound 40, Allyl (4-{4-[(2R,3R)-3-((S)-1-{(E)-(3S,10R,16S)-10-[3-chloro-4-methoxybenzyl]-3-isobutyl-6,6-dimethyl-2,5,9,12-tetraoxo-1,4-dioxa-8,11-diazacyclohexadec-13-en-16-yl}ethyl)-oxiranyl]benzyl}piperazin-1-yl)acetate] | 0.293 | 0.12 | 1.58
8 | C=CCOC(=O)CCOCCOCCOCCOCCNCc1ccc([C@H]2O[C@@H]2[C@@H](C)[C@@H]2C/C=C/C(=O)N[C@H](Cc3ccc(OC)c(Cl)c3)C(=O)NCC(C)(C)C(=O)O[C@@H](CC(C)C)C(=O)O2)cc1 [Compound 44, Allyl (2-{2-[2-(2-{4-[(2R,3R)-3-((S)-1-{(E)-(3S,10R,16S)-10-[3-chloro-4-methoxy-benzyl]-3-isobutyl-6,6-dimethyl-2,5,9,12-tetraoxo-1,4-dioxa-8,11-diazacyclohexadec-13-en-16-yl}ethyl)oxiranyl]benzylamino}ethoxy)ethoxy]ethoxy}ethoxy)propanoate] | 0.156 | 0.135 | 15.6
9 | COc1ccc(C[C@H]2NC(=O)/C=C/C[C@@H]([C@H](C)[C@@H]3O[C@H]3c3ccc(CO)cc3)OC(=O)[C@H](CC(C)C)OC(=O)C(C)(C)CNC2=O)cc1Cl [Compound 57] | 1.19 | 1.13 | 29
10 | COC(=O)CCCc1cn(Cc2ccc([C@H]3O[C@@H]3[C@@H](C)[C@@H]3C/C=C/C(=O)N[C@H](Cc4ccc(OC)c(Cl)c4)C(=O)NCC(C)(C)C(=O)O[C@@H](CC(C)C)C(=O)O3)cc2)nn1 [Compound 62, Methyl (1-{4-[(2R,3R)-3-((S)-1-{(E)-(3S,10R,16S)-10-[3-chloro-4-methoxybenzyl]-3-isobutyl-6,6-dimethyl-2,5,9,12-tetraoxo-1,4-dioxa-8,11-diazacyclohexadec-13-en-16-yl}ethyl)-oxiranyl]benzyl}-1H-1,2,3-triazol-4-yl)butanoate] | 0.095 | 0.035 | 10.9
11 | COc1ccc(C[C@H]2NC(=O)/C=C/C[C@@H]([C@H](C)[C@H]3O[C@@H]3c3ccc(CN)cc3)OC(=O)[C@H](CC(C)C)OC(=O)C(C)(C)CNC2=O)cc1Cl [Compound 77, (E)-(3S,10R,16S)-16-{(S)-1-[(2R,3R)-3-(4-Aminomethylphenyl)oxiranyl]ethyl}-10-(3-chloro-4-methoxybenzyl)-3-isobutyl-6,6-dimethyl-1,4-dioxa-8,11-diazacyclohexadec-13-ene-2,5,9,12-tetraone] | 0.17 | 0.105 | 15.1

Reference: patent US8952147B2, “Conjugates, preparation thereof, and therapeutic use thereof” (Sanofi, priority 2009, dated 2015)
